Laboratory results published in patent US20020137929A1, “1 - (3-heterocyclylphenyl) isothiourea, -isourea, -guanidine and -amidine herbicidal agents” (Intellectual Property Department, BASF Aktiengesellschaft, priority 1998, published 2002).

Experiments:
GALAP (Galium) = experiment: Preemergence herbicidal evaluation; assay type: in vivo, Galium aparine; conditions: rated 4-5 weeks after treatment
Outline: (§1)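 Scores (0–9) reflect visual comparison with control plants for stand, vigor, malformation, size and chlorosis. Compound was applied to the soil after sowing, before emergence, as an aqueous acetone spray (about 0.0156–0.500 kg/ha), and cups were kept in a greenhouse for 4–5 weeks.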

[1] = test system: ECHORC (Watergrass (Calif.)); experiment: Postemergence weed control under flooded paddy conditions; assay type: in vivo, Echinochloa oryzoides; conditions: postemergence weeds, 3-4 weeks after treatment
Outline: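 Weeds 3 to 5 cm tall and rice seedlings at the 1.5 to 2.5 leaf stage were flooded, with water held 1.5 to 3 cm above the soil. Compounds in 50/50 v/v aqueous/acetone went into the flood water at about 0.0313 to 0.500 kg/ha. Visual 0-9 ratings versus control were made 3 to 4 weeks later.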

AMBEL (Ragweed, Common) = experiment: Postemergence herbicidal evaluation; assay type: in vivo, Ambrosia artemisifolia
Outline: (§2)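 Herbicidal effect was judged by eye on a 0–9 scale covering stand, vigor, deformity, size and chlorosis, compared with controls, four to five weeks after seedlings about two weeks old were sprayed (40 psi, ~0.0156–0.500 kg/ha).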

[2] = test system: GLXMAW (Soybean, Williams); experiment: Postemergence herbicidal evaluation; assay type: in vivo, Glycine max, (L.) Merr. cv Williams
Outline: as §2

SETVI (Foxtail, Green) = experiment: Postemergence herbicidal evaluation; assay type: in vivo, Setaria viridis
Outline: as §2

ECHCG (Barnyardgrass) [3] = experiment: Preemergence herbicidal evaluation; assay type: in vivo, Echinochloa crus-galli; conditions: rated 4-5 weeks after treatment
Outline: as §1

[4] = test system: IPOHE (Morningglory, Ivyleaf); experiment: Postemergence herbicidal evaluation; assay type: in vivo, Ipomoea hederacea
Outline: as §2

ZEAMX (Corn, Field) = experiment: Preemergence herbicidal evaluation; assay type: in vivo, Zea mays; conditions: rated 4-5 weeks after treatment
Outline: as §1

ECHCG (Barnyardgrass) [5] = experiment: Postemergence herbicidal evaluation; assay type: in vivo, Echinochloa crus-galli
Outline: as §2

[6] = test system: IPOHE (Morningglory, Ivyleaf); experiment: Preemergence herbicidal evaluation; assay type: in vivo, Ipomoea hederacea; conditions: rated 4-5 weeks after treatment
Outline: as §1

CASOB (Sicklepod) = experiment: Preemergence herbicidal evaluation; assay type: in vivo, Cassia obtusifolia; conditions: rated 4-5 weeks after treatment
Outline: as §1

[7] = test system: TRZAWR (Wheat, Winter, cv Riband); experiment: Postemergence herbicidal evaluation; assay type: in vivo, Triticum aestivum
Outline: as §2

ABUTH (Velvetleaf) = experiment: Postemergence herbicidal evaluation; assay type: in vivo, Abutilon theophrasti
Outline: as §2

[8] = test system: CHEAL (Lambsquarters, Common); experiment: Preemergence herbicidal evaluation; assay type: in vivo, Chenopodium album; conditions: rated 4-5 weeks after treatment
Outline: as §1

## CCOC(=O)CCN1C(=O)CSC1=Nc1cc(-n2c(=O)cc(C(F)(F)F)n(C)c2=O)c(Cl)cc1Cl [Compound 32, Ethyl 2-{{2,4-dichloro-5-[3,6-dihydro-3-methyl-2,6-dioxo-4-(trifluoromethyl)-1(2H)-pyrimidinyl]-phenyl}imino}-4-oxo-3-thiazolidinepropionate]
GALAP (Galium); rate 0.0156 kg/ha
  Preemergence herbicidal rating GALAP: 0.0
GALAP (Galium); rate 0.0313 kg/ha
  Preemergence herbicidal rating GALAP: 0.0
GALAP (Galium); rate 0.0625 kg/ha
  Preemergence herbicidal rating GALAP: 0.0
GALAP (Galium); rate 0.1250 kg/ha
  Preemergence herbicidal rating GALAP: 0.5
GALAP (Galium); rate 0.2500 kg/ha
  Preemergence herbicidal rating GALAP: 3.5
GALAP (Galium); rate 0.5000 kg/ha
  Preemergence herbicidal rating GALAP: 7.0
[1]; rate 0.1250 kg/ha
  Herbicidal rating ECHORC: 3.0
[1]; rate 0.2500 kg/ha
  Herbicidal rating ECHORC: 6.0
AMBEL (Ragweed, Common); Rate 0.0158 kg/ha
  Postemergence herbicidal rating AMBEL: 3.0
AMBEL (Ragweed, Common); Rate 0.0313 kg/ha
  Postemergence herbicidal rating AMBEL: 0.0
AMBEL (Ragweed, Common); Rate 0.0625 kg/ha
  Postemergence herbicidal rating AMBEL: 3.0
AMBEL (Ragweed, Common); Rate 0.1250 kg/ha
  Postemergence herbicidal rating AMBEL: 9.0
[2]; Rate 0.0158 kg/ha
  Postemergence herbicidal rating GLXMAW: 3.5
[2]; Rate 0.0313 kg/ha
  Postemergence herbicidal rating GLXMAW: 5.5
[2]; Rate 0.0625 kg/ha
  Postemergence herbicidal rating GLXMAW: 6.0
[2]; Rate 0.1250 kg/ha
  Postemergence herbicidal rating GLXMAW: 6.0
SETVI (Foxtail, Green); Rate 0.0158 kg/ha
  Postemergence herbicidal rating SETVI: 0.0
SETVI (Foxtail, Green); Rate 0.0313 kg/ha
  Postemergence herbicidal rating SETVI: 0.0
SETVI (Foxtail, Green); Rate 0.0625 kg/ha
  Postemergence herbicidal rating SETVI: 0.0
SETVI (Foxtail, Green); Rate 0.1250 kg/ha
  Postemergence herbicidal rating SETVI: 7.0
ECHCG (Barnyardgrass) [3]; rate 0.0156 kg/ha
  Preemergence herbicidal rating ECHCG: 0.0
ECHCG (Barnyardgrass) [3]; rate 0.0313 kg/ha
  Preemergence herbicidal rating ECHCG: 0.0
ECHCG (Barnyardgrass) [3]; rate 0.0625 kg/ha
  Preemergence herbicidal rating ECHCG: 0.0
ECHCG (Barnyardgrass) [3]; rate 0.1250 kg/ha
  Preemergence herbicidal rating ECHCG: 0.5
ECHCG (Barnyardgrass) [3]; rate 0.2500 kg/ha
  Preemergence herbicidal rating ECHCG: 0.0
ECHCG (Barnyardgrass) [3]; rate 0.5000 kg/ha
  Preemergence herbicidal rating ECHCG: 1.0
[4]; Rate 0.0158 kg/ha
  Postemergence herbicidal rating IPOHE: 9.0
[4]; Rate 0.0313 kg/ha
  Postemergence herbicidal rating IPOHE: 9.0
[4]; Rate 0.0625 kg/ha
  Postemergence herbicidal rating IPOHE: 9.0
[4]; Rate 0.1250 kg/ha
  Postemergence herbicidal rating IPOHE: 9.0
ZEAMX (Corn, Field); rate 0.0156 kg/ha
  Preemergence herbicidal rating ZEAMX: 0.0
ZEAMX (Corn, Field); rate 0.0313 kg/ha
  Preemergence herbicidal rating ZEAMX: 0.0
ZEAMX (Corn, Field); rate 0.0625 kg/ha
  Preemergence herbicidal rating ZEAMX: 0.0
ZEAMX (Corn, Field); rate 0.1250 kg/ha
  Preemergence herbicidal rating ZEAMX: 0.5
ZEAMX (Corn, Field); rate 0.2500 kg/ha
  Preemergence herbicidal rating ZEAMX: 4.5
ZEAMX (Corn, Field); rate 0.5000 kg/ha
  Preemergence herbicidal rating ZEAMX: 6.0
ECHCG (Barnyardgrass) [5]; Rate 0.0158 kg/ha
  Postemergence herbicidal rating ECHCG: 0.0
ECHCG (Barnyardgrass) [5]; Rate 0.0313 kg/ha
  Postemergence herbicidal rating ECHCG: 0.0
ECHCG (Barnyardgrass) [5]; Rate 0.0625 kg/ha
  Postemergence herbicidal rating ECHCG: 0.0
ECHCG (Barnyardgrass) [5]; Rate 0.1250 kg/ha
  Postemergence herbicidal rating ECHCG: 2.0
[6]; rate 0.0156 kg/ha
  Preemergence herbicidal rating IPOHE: 0.0
[6]; rate 0.0313 kg/ha
  Preemergence herbicidal rating IPOHE: 0.0
[6]; rate 0.0625 kg/ha
  Preemergence herbicidal rating IPOHE: 0.5
[6]; rate 0.1250 kg/ha
  Preemergence herbicidal rating IPOHE: 0.5
[6]; rate 0.2500 kg/ha
  Preemergence herbicidal rating IPOHE: 0.0
[6]; rate 0.5000 kg/ha
  Preemergence herbicidal rating IPOHE: 1.0
CASOB (Sicklepod); rate 0.0156 kg/ha
  Preemergence herbicidal rating CASOB: 0.5
CASOB (Sicklepod); rate 0.0313 kg/ha
  Preemergence herbicidal rating CASOB: 0.0
CASOB (Sicklepod); rate 0.0625 kg/ha
  Preemergence herbicidal rating CASOB: 0.0
CASOB (Sicklepod); rate 0.1250 kg/ha
  Preemergence herbicidal rating CASOB: 0.0
CASOB (Sicklepod); rate 0.2500 kg/ha
  Preemergence herbicidal rating CASOB: 0.0
CASOB (Sicklepod); rate 0.5000 kg/ha
  Preemergence herbicidal rating CASOB: 0.0
[7]; Rate 0.0158 kg/ha
  Postemergence herbicidal rating TRZAWR: 2.0
[7]; Rate 0.0313 kg/ha
  Postemergence herbicidal rating TRZAWR: 3.5
[7]; Rate 0.0625 kg/ha
  Postemergence herbicidal rating TRZAWR: 4.0
[7]; Rate 0.1250 kg/ha
  Postemergence herbicidal rating TRZAWR: 4.0
ABUTH (Velvetleaf); Rate 0.0158 kg/ha
  Postemergence herbicidal rating ABUTH: 5.0
ABUTH (Velvetleaf); Rate 0.0313 kg/ha
  Postemergence herbicidal rating ABUTH: 9.0
ABUTH (Velvetleaf); Rate 0.0625 kg/ha
  Postemergence herbicidal rating ABUTH: 9.0
ABUTH (Velvetleaf); Rate 0.1250 kg/ha
  Postemergence herbicidal rating ABUTH: 9.0
[8]; rate 0.0156 kg/ha
  Preemergence herbicidal rating CHEAL: 4.5
[8]; rate 0.0313 kg/ha
  Preemergence herbicidal rating CHEAL: 4.5
[8]; rate 0.0625 kg/ha
  Preemergence herbicidal rating CHEAL: 9.0
[8]; rate 0.1250 kg/ha
  Preemergence herbicidal rating CHEAL: 9.0
[8]; rate 0.2500 kg/ha
  Preemergence herbicidal rating CHEAL: 9.0
[8]; rate 0.5000 kg/ha
  Preemergence herbicidal rating CHEAL: 9.0
